From publication PMC7230820, “Anti-Inflammatory Effects of Fucoxanthinol in LPS-Induced RAW264.7 Cells through the NAAA-PEA Pathway” (Marine Drugs, 2020)

How the values were obtained:
[1] = molecular target: T1, N-acylethanolamine acid amidase (NAAA) (Homo sapiens, UniProt Q02083); test: recombinant enzyme activity assay, heptaenyl ethanolamide substrate, pH […]; format: biochemical
T1 sequence (Q02083 29-125): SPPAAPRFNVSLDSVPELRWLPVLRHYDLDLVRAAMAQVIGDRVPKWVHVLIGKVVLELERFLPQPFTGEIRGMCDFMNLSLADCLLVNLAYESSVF
T1 sequence (Q02083 126-359): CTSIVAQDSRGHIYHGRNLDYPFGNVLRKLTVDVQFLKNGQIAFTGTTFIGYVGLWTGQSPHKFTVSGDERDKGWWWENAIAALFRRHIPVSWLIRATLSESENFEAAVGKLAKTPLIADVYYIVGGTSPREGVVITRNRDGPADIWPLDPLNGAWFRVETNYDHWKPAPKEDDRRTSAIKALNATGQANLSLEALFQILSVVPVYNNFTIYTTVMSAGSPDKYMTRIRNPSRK

[2] = molecular target: T2, fatty acid amide hydrolase (FAAH) (Homo sapiens, UniProt O00519); test: recombinant enzyme activity assay, anandamide substrate, pH […]; format: biochemical
T2 sequence (O00519 1-579): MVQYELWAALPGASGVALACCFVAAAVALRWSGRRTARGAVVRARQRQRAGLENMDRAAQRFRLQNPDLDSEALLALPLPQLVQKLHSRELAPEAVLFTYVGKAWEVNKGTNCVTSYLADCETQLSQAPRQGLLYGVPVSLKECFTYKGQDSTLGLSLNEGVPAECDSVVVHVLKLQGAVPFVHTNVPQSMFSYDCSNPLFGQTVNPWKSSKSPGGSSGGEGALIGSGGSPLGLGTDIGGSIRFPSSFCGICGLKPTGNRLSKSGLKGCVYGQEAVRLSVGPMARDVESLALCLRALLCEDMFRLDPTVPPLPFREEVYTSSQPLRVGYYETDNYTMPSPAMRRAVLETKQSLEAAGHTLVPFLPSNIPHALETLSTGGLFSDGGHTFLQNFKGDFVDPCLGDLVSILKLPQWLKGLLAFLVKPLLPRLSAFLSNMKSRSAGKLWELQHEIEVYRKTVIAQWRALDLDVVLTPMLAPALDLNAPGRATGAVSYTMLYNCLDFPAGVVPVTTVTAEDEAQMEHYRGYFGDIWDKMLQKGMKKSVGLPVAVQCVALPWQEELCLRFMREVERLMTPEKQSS

| Structure (SMILES) | IC50 [1] | IC50 [2] |
| --- | --- | --- |
| CC(=O)O[C@H]1CC(C)(C)C(=C=C/C(C)=C/C=C/C(C)=C/C=C/C=C(C)/C=C/C=C(\C)C(=O)C[C@@]23O[C@]2(C)C[C@@H](O)CC3(C)C)[C@](C)(O)C1 [FX, Fucoxanthin] | 31.4 ± 1.06 µM |  |
| C\C(C=C=C1C(C)(C)C[C@H](O)C[C@@]1(C)O)=C/C=C/C(C)=C/C=C/C=C(C)/C=C/C=C(\C)C(=O)C[C@@]12O[C@]1(C)C[C@@H](O)CC2(C)C [FXOH, Fucoxanthinol] | 12.8 ± 1.12 µM | 42.4 ± 1.11 µM |
